Laboratory results as given in patent US11154565B2, “Process for preparing a stable emulsion comprising one or more avermectins” (GALDERMA HOLDING SA, priority 2015, dated 2021).

Test: Chemical stability of ivermectin in the composition on storage
Type: physicochemical
Settings: composition obtained according to the invention

ivermectin
chemical stability of ivermectin (stored for 6 months at 40° C.): chemically stable | chemical stability of ivermectin (stored for 12 months at room temperature): chemically stable
